Assay [1] concerns B. cereus ATCC 11778. Description: NCCLS broth microdilution MIC, B. cereus. The format is cell-based, Bacillus cereus. As to conditions: organism A = B. cereus ATCC 11778. An excerpt:
(§1) Compounds according to this invention were screened for their in vitro activities against selected species of bacteria and fungi. […]

Assay [2] has as its system C. albicans ATCC 38247. The experiment in a line: Antifungal MIC, C. albicans. As to conditions: organism B = C. albicans ATCC 38247. The format is cell-based, Candida albicans.
Text: as §1

For assay [3], the system named is E. faecalis ATCC 29212. The experiment in a line: NCCLS broth microdilution MIC, E. faecalis. To be noted: organism C = E. faecalis ATCC 29212. The format is cell-based.
Text: as §1

The test system of assay [4] is S. pneumoniae ATCC 49619. Description: NCCLS broth microdilution MIC, S. pneumoniae ATCC 49619. Type of assay: cell-based, Streptococcus pneumoniae. As to conditions: organism H = S. pneumoniae ATCC 49619.
Text: as §1
For orientation: In broth dilution the organism is exposed to a series of concentrations in liquid medium.

The test system of assay [5] is S. aureus ATCC 13709. Description: NCCLS broth microdilution MIC, S. aureus (MSSA). Type of assay: cell-based, Staphylococcus aureus. As to conditions: organism E = S. aureus ATCC 13709 (MSSA).
Text: as §1

For assay [6], the system named is S. aureus ATCC 27660. The experiment in a line: NCCLS broth microdilution MIC, S. aureus (MRSA). As to conditions: organism F = S. aureus ATCC 27660 (MRSA). The format is cell-based, Staphylococcus aureus.
Text: as §1

The mark [7] stands for this setting: Staphylococcus aureus, read-out: Minimum Inhibitory Concentration (MIC).

Turning to `Cn1cc(NC(=O)c2cc(NC(=O)c3cc(NC(=O)c4nccc5ccccc45)cn3C)cn2C)cc1C(=O)NCCN1CCOCC1` [Ib-1], the “Minimum Inhibitory Concentration (MIC)” value is “+++ (+++ = MIC ≦ 4)” in assay [1], >32 µg/mL in assay [2], “+++ (+++ = MIC ≦ 4)” in assay [3] and “+++ (+++ = MIC ≦ 4)” in assay [4].

With `CCN(CC)CCNC(=O)c1cc(NC(=O)c2cc(NC(=O)c3cc(NC(=O)c4cc5ccccc5cn4)cn3C)cn2C)sn1` [Ib-53], the “Minimum Inhibitory Concentration (MIC)” value is “+++ (+++ = MIC ≦ 4)” in assay [1]; >32 µg/mL in assay [2]; “+++ (+++ = MIC ≦ 4)” in assay [3]; “+++ (+++ = MIC ≦ 4)” in assay [5]; “+++ (+++ = MIC ≦ 4)” in assay [6]; “+++ (+++ = MIC ≦ 4)” in assay [4].

For `Cn1cc(NC(=O)c2cc(NC(=O)c3cc(NC(=O)c4cc5ccccc5cn4)cn3C)cn2CCN2CCOCC2)cc1C(=O)NCCN1CCOCC1` [Ib-57], the “Minimum Inhibitory Concentration (MIC)” value in assay [1] was “+++ (+++ = MIC ≦ 4)”; in assay [2], >32 µg/mL; in assay [3], “+++ (+++ = MIC ≦ 4)”; in assay [5], “+++ (+++ = MIC ≦ 4)”; in assay [6], “+++ (+++ = MIC ≦ 4)”; in assay [4] it was “+++ (+++ = MIC ≦ 4)”.

Consider `Cn1cc(NC(=O)c2cc3ccccc3cn2)cc1C(=O)Nc1cc(C(=O)Nc2cn(C)c(C(=O)NCCN3CCOCC3)n2)n(C)c1` [Ib-58], for which the “Minimum Inhibitory Concentration (MIC)” value in assay [1] was >32 µg/mL; in assay [2], >32 µg/mL; in assay [3], “+++ (+++ = MIC ≦ 4)”; in assay [5] it was “++ (++ = 4 < MIC < 12)”; in assay [6], >32 µg/mL; in assay [4] it was “+++ (+++ = MIC ≦ 4)”.

Regarding `Cn1cc(NC(=O)c2cc(NC(=O)c3cc4ccccc4cn3)no2)cc1C(=O)OCCN1CCOCC1` [Ib-61], the “Minimum Inhibitory Concentration (MIC)” value in assay [1] is >32 µg/mL; in assay [2] it was >32 µg/mL; in assay [3] it was “+++ (+++ = MIC ≦ 4)”; in assay [5], “+ (+ = 12 ≦ MIC ≦ 32)”; in assay [6] it was “+++ (+++ = MIC ≦ 4)”; in assay [4], “+++ (+++ = MIC ≦ 4)”.

`Cn1cc(NC(=O)c2cc(NC(=O)c3cc(NC(=O)c4cc5ccccc5cn4)c[nH]3)cn2C)cc1C(=O)NCCN1CCCCC1` [Ib-62]: the “Minimum Inhibitory Concentration (MIC)” value in assay [1] was “+++ (+++ = MIC ≦ 4)”; in assay [2], >32 µg/mL; in assay [3] it was “+++ (+++ = MIC ≦ 4)”; in assay [5] it was “++ (++ = 4 < MIC < 12)”; in assay [6], “+++ (+++ = MIC ≦ 4)”; in assay [4] it was “+++ (+++ = MIC ≦ 4)”.

`Cc1cc(NC(=O)c2cc(NC(=O)c3cc(NC(=O)c4cc5ccccc5cn4)cn3C)cn2CCN2CCOCC2)sn1` [Ib-63]: the “Minimum Inhibitory Concentration (MIC)” value is “+++ (+++ = MIC ≦ 4)” in assay [1]; >32 µg/mL in assay [2]; “+++ (+++ = MIC ≦ 4)” in assay [3]; “+++ (+++ = MIC ≦ 4)” in assay [5]; “+++ (+++ = MIC ≦ 4)” in assay [6]; “+++ (+++ = MIC ≦ 4)” in assay [4].

For the compound `Cc1cc(NC(=O)c2cc(NC(=O)c3cc(NC(=O)c4cc5ccccc5cn4)cn3C)cn2CCN2CCCC2)sn1` [Ib-65], the “Minimum Inhibitory Concentration (MIC)” value in assay [1] was “+++ (+++ = MIC ≦ 4)”; in assay [2], >32 µg/mL; in assay [3], “+++ (+++ = MIC ≦ 4)”; in assay [5], “+++ (+++ = MIC ≦ 4)”; in assay [6] it was “+++ (+++ = MIC ≦ 4)”; in assay [4] it was “+++ (+++ = MIC ≦ 4)”.

On to `Cn1cc(NC(=O)c2cc(NC(=O)c3cc(NC(=O)c4cc5ccccc5cn4)c[nH]3)cn2C)cc1C(=O)NCCc1ccccn1` [Ib-69], for which the “Minimum Inhibitory Concentration (MIC)” value is “+++ (+++ = MIC ≦ 4)” in assay [1]; >32 µg/mL in assay [2]; “+++ (+++ = MIC ≦ 4)” in assay [3]; “+++ (+++ = MIC ≦ 4)” in assay [5]; “+++ (+++ = MIC ≦ 4)” in assay [6]; “+++ (+++ = MIC ≦ 4)” in assay [4].

With `Cn1cc(NC(=O)c2cc(NC(=O)c3cc(NC(=O)c4cc5ccccc5cn4)c[nH]3)cn2C)cc1C(=O)NCCN1CCC(F)CC1` [Ib-71], the “Minimum Inhibitory Concentration (MIC)” value is “+++ (+++ = MIC ≦ 4)” in assay [1]; >32 µg/mL in assay [2]; “+++ (+++ = MIC ≦ 4)” in assay [3]; “+++ (+++ = MIC ≦ 4)” in assay [5]; “+++ (+++ = MIC ≦ 4)” in assay [6]; “+++ (+++ = MIC ≦ 4)” in assay [4].

As to `COCn1cc(NC(=O)c2cc3ccccc3cn2)cc1C(=O)Nc1cc(C(=O)Nc2cc(C(=O)NCCN3CCOCC3)n(C)c2)n(C)c1` [Ib-72], the “Minimum Inhibitory Concentration (MIC)” value was “+++ (+++ = MIC ≦ 4)” in assay [1]; >32 µg/mL in assay [2]; “+++ (+++ = MIC ≦ 4)” in assay [3]; “+++ (+++ = MIC ≦ 4)” in assay [5]; “+++ (+++ = MIC ≦ 4)” in assay [6]; “+++ (+++ = MIC ≦ 4)” in assay [4].

Take `CN(C)CCSCCn1cc(NC(=O)c2cc3ccccc3cn2)cc1C(=O)Nc1cc(C(=O)Nc2ccc3cnccc3c2)n(C)c1` [Ib-73]: the “Minimum Inhibitory Concentration (MIC)” value in assay [1], in assay [2], in assay [3], in assay [5], in assay [6] and in assay [4] was “+++ (+++ = MIC ≦ 4)” each time.

For `CC(=O)[O-].Cc1cc(NC(=O)c2cc(NC(=O)c3cc(NC(=O)c4cc5ccccc5cn4)cn3C)cn2CCC[N+](C)(C)C)sn1` [Ib-74], the “Minimum Inhibitory Concentration (MIC)” value in assay [1], in assay [2], in assay [3], in assay [5], in assay [6] and in assay [4] was >32 µg/mL throughout.

Turning to `Cn1cc(NC(=O)c2cc(NC(=O)c3cc(NC(=O)c4cc5ccccc5cn4)c[nH]3)cn2C)cc1C(=O)NCCN1CCSCC1` [Ib-75], the MIC in assay [1] (Bacillus cereus, ATCC11778, read-out: Minimum Inhibitory Concentration (MIC)) is < 4 µg/mL; in assay [2] (Candida albicans, ATCC38247, read-out: Minimum Inhibitory Concentration (MIC)), > 32 µg/mL; in assay [3] (Enterococcus faecalis, ATCC29212, read-out: Minimum Inhibitory Concentration (MIC)), < 4 µg/mL; in assay [5] (setting [7]), < 4 µg/mL; in assay [6] (setting [7]), < 4 µg/mL; in assay [4] (Streptococcus pneumoniae, ATCC49619, read-out: Minimum Inhibitory Concentration (MIC)), < 4 µg/mL.

As to `Cn1cc(NC(=O)c2cc(NC(=O)c3cc(NC(=O)c4cc5ccccc5cn4)c[nH]3)cn2C)cc1C(=O)NCCc1ccncc1` [Ib-76], the “Minimum Inhibitory Concentration (MIC)” value in assay [1] was “+++ (+++ = MIC ≦ 4)”; in assay [2], >32 µg/mL; in assay [3] it was “+++ (+++ = MIC ≦ 4)”; in assay [5], “+++ (+++ = MIC ≦ 4)”; in assay [6] it was “+++ (+++ = MIC ≦ 4)”; in assay [4], “+++ (+++ = MIC ≦ 4)”.

In the case of `Cc1cc(NC(=O)c2cc(NC(=O)c3nc(NC(=O)c4cc5ccccc5cn4)cn3C)cn2CCN2CCOCC2)sn1` [Ib-77], the “Minimum Inhibitory Concentration (MIC)” value is “+++ (+++ = MIC ≦ 4)” in assay [1]; >32 µg/mL in assay [2]; “+++ (+++ = MIC ≦ 4)” in assay [3]; “+++ (+++ = MIC ≦ 4)” in assay [5]; “+++ (+++ = MIC ≦ 4)” in assay [6]; “+++ (+++ = MIC ≦ 4)” in assay [4].

Consider `CN(C)CCSCCn1cc(NC(=O)c2cc3ccccc3cn2)cc1C(=O)Nc1cc(C(=O)Nc2cc(C(=O)NCCN3CCOCC3)n(C)c2)n(C)c1` [Ib-79], for which the “Minimum Inhibitory Concentration (MIC)” value is “+++ (+++ = MIC ≦ 4)” in assay [1]; >32 µg/mL in assay [2]; “+++ (+++ = MIC ≦ 4)” in assay [3]; “+++ (+++ = MIC ≦ 4)” in assay [5]; “+++ (+++ = MIC ≦ 4)” in assay [6]; “+++ (+++ = MIC ≦ 4)” in assay [4].

These data come from patent publication US6777425B2, “Isoquinoline compounds having antiinfective activity” (Genesoft Pharmaceuticals, Inc., priority 2001, dated 2004).
